Laboratory results published in paper PMC7617869, “Molecular glues that inhibit deubiquitylase activity and inflammatory signaling” (Nature Structural & Molecular Biology, 2025).
Several values for one entry are separate records, joined by “and”; a condition that tells them apart may be missing. Equal entries are not always repeated.

Legend:
[1] = system: ISG expression in healthy control PBMCs; assay: Healthy PBMC type I IFN signaling gene expression array, IFNα2-stimulated; format: cell-based, human; settings: IFNα2 20 ng/mL, 2 µM, 16 h
Experimental: NEM). Cell lysates were clarified by centrifugation at 15,000 g for 10 minutes at 4 °C. Clarified lysates were pre-cleared with control uncoupled agarose beads (UM400, LifeSensors) for 30 minutes on a rotator at 4 °C followed by centrifugation at 5,000 g for 2 minutes. Equal amount of pre-cleared lysates from individual samples were incubated with 20 µL Agarose-TUBE beads (pre-equilibrated with 1X Tris-buffered saline (TBS)) overnight on a rotator at 4 °C. Beads were collected by centrifugation at 5,000 g for 2 minutes at RT followed by four stringent washes with 1X TBST (TBS, 0.1% Tween-20). TUBE-pulldown proteins were eluted by boiling Agarose-TUBE beads in 2X LDS sample buffer supplemented with […] DTT for 15 minutes. Eluted proteins were resolved on NuPAGE™ 4–12% Bis–Tris gel followed by Western blotting using anti-IFNAR1 antibody (ab124764, Abcam).
(§1) PBMCs in vitro experiments
(§2) Peripheral blood mononuclear cells (PBMCs) from healthy and SSc donors were separated using density gradient method (Leucosep™, Greiner Bio-One International) from EDTA anticoagulated peripheral blood; isolated cells were washed twice by PBS. PBMCs were then incubated in RPMI1640 […]
For healthy PBMCs, cells were stimulated with 20 ng/mL of IFN (+/- compounds or DMSO). […] Concentration of CXCL10 was determined according to a 4-parameter logistic regression standard curve. […]
For Type I IFN signalling analysis, the human IFN I RT2 Profiler PCR Array (Qiagen, PAMM-016ZE) was performed on available RNA from healthy (n=3) and SSc (n=9) donors. […] Relative expression for each gene was determined, firstly by ∆CT calculated using the geometric mean of 4 housekeeping genes (ACTB, GAPDH, HPRT1, RPLP0), followed by 2^(-∆CT), and expressed as fold change to control, according to manufacturer’s guidance. IFN2α-induced ISGs in healthy donors were determined using a Student’s t-test (two-tail distribution and equal variances) on the triplicate fold change in 2^(-ΔCT) values between […]
(§3) R Foundation for Statistical Computing). The IFN2α inducible genes determined in healthy donors […]

[2] = system: ISG expression in SSc PBMCs; assay: SSc PBMC type I IFN signaling gene expression array, unstimulated; format: cell-based, human
Experimental: as §1, §2
For healthy PBMCs, cells were stimulated with 20 ng/mL of IFN (+/- compounds or DMSO). For SSc PBMCs, cells were in basal conditions with no additional IFN stimulation. Cells were centrifuged at 300 g for 10 minutes. […]
RNA was extracted from cell pellets using TRIzol™ (ThermoFisher
Scientific, Waltham, MA) and processed using Quick-RNA Miniprep Kit (Zymo Research) as per the manufacturer’s instruction.
For Type I IFN signalling analysis, the human IFN I RT2 Profiler PCR Array (Qiagen, PAMM-016ZE) was performed on available RNA from healthy (n=3) and SSc (n=9) donors. RNA was converted to cDNA using RT2 First Strand Kit (Qiagen). Next, the cDNA was mixed with RT2 SYBR Green Mastermix (Qiagen, Venlo). Successful PCR performance was confirmed by assay tests for genomic DNA contamination, RNA sample quality, as well as single melt curve determination and <35 Ct for each gene, leading to validated gene expression of 67 genes. Relative expression for each gene was determined, firstly by ∆CT calculated using the geometric mean of 4 housekeeping genes (ACTB, GAPDH, HPRT1, RPLP0), followed by 2^(-∆CT), and expressed as fold change to control, according to manufacturer’s guidance. IFN2α-induced ISGs in healthy donors were determined using a Student’s t-test (two-tail distribution and equal variances) on the triplicate fold change in 2^(-ΔCT) values between […]
donors). Heatmaps were generated using the “pheatmap” function in R (v4.0.2) and RStudio (v1.3.1093) applying row scaling to standardise the expression data across samples (R core team 2020.
as §3
171-C. To account for Type I IFN signalling heterogeneity across samples, the mean 2^(-∆CT) for each […]
relative gene expression, illustrated as a fold change and visualised in log2. The Type I IFN signalling array data for the patient samples is included in Source Data Figure 6, Extended Data Fig. 9.

[3] = unstimulated PBMCs from SSc patients, one value per patient (P1-P9)

SMILES: O=C(NC1CCNCC1)c1nn(C(=O)c2c(Cl)cccc2Cl)cc1NC(=O)c1c(Cl)cccc1Cl [JMS-175-2]
- number of the 34 IFN-upregulated ISGs suppressed compared to AP-5-145 [1]: 13
- number of ISGs (of 34) reduced compared to AP-5-145 ([2]; SSc PBMCs (n = 9), 2 µM, 16 h): 22
- ADAR, Type I IFN signalling array raw data [2, 3]: 3.812 and 3.743 and 4.113 and 4.435 and 3.832 and 4.965 and 3.1007 and 4.473 and 4.363
- BST2, Type I IFN signalling array raw data [2, 3]: 2.634 and 3.889 and 3.072 and 2.87 and 3.494 and 3.795 and 4.633 and 2.6092 and 2.483
- CASP1, Type I IFN signalling array raw data [2, 3]: 1.213 and 2.812 and 2.398 and 2.039 and 1.156 and 2.52 and 2.747 and 2.114 and 1.958
- CD86, Type I IFN signalling array raw data [2, 3]: 3.228 and 5.906 and 3.901 and 5.361 and 5.149 and 4.521 and 6.493 and 4.685 and 4.196
- CXCL10, Type I IFN signalling array raw data [2, 3]: 8.71 and 7.706 and 4.205 and 4.635 and 4.659 and 4.1108 and 5.782 and 5.515 and 4.585
- DDX58, Type I IFN signalling array raw data [2, 3]: 2.743 and 2.94 and 3.022 and 3.298 and 2.839 and 3.98 and 3.519 and 2.665 and 2.269
- GBP1, Type I IFN signalling array raw data [2, 3]: 2.158 and 2.728 and 1.98 and 1.48 and 2.261 and 1.7592 and 1.143 and 2.383 and 0.7799
- IFI6, Type I IFN signalling array raw data [2, 3]: 2.425 and 3.947 and 3.076 and 2.468 and 2.755 and 3.753 and 4.379 and 1.895 and 1.403
- IFI16, Type I IFN signalling array raw data [2, 3]: 2.049 and 1.794 and 2.214 and 1.769 and 1.846 and 2.52 and 0.8721 and 1.744 and 1.344
- IFIH1, Type I IFN signalling array raw data [2, 3]: 4.067 and 4.072 and 3.5554 and 2.793 and 3.2049 and 5.377 and 3.587 and 3.865 and 3.376
- IFIT1, Type I IFN signalling array raw data [2, 3]: 6.813 and 5.481 and 4.387 and 3.431 and 4.758 and 6.993 and 4.645 and 3.607 and 3.511
- IFIT2, Type I IFN signalling array raw data [2, 3]: 3.877 and 4.276 and 4.33 and 2.588 and 4.403 and 4.745 and 2.229 and 3.19 and 2.838
- IFIT3, Type I IFN signalling array raw data [2, 3]: 4.821 and 4.968 and 3.571 and 2.478 and 4.365 and 4.923 and 2.496 and 2.53 and 2.343
- IFITM1, Type I IFN signalling array raw data [2, 3]: 1.018 and 0.9593 and 1.422 and 1.403 and 1.369 and 1.662 and 1.509 and 1.105 and 0.5587
- IFITM2, Type I IFN signalling array raw data [2, 3]: 4.116 and 4.7 and 5.192 and 4.824 (2×) and 4.737 and 4.678 and 5.159 and 5.095
- IFITM3, Type I IFN signalling array raw data [2, 3]: 2.916 and 4.165 and 3.837 and 2.08 and 3.733 and 4.352 and 4.508 and 1.719 and 2.211
- IRF1, Type I IFN signalling array raw data [2, 3]: 1.526 and 2.165 and 1.923 and 0.6715 and 1.654 and 1.161 and 1.159 and 2.105 and 0.7689
- IRF7, Type I IFN signalling array raw data [2, 3]: 5.385 and 5.096 and 5.885 and 3.925 and 5.478 and 5.126 and 4.9117 and 4.798 and 3.676
- IRF9, Type I IFN signalling array raw data [2, 3]: 1.63 and 2.363 and 2.229 and 1.688 and 2.545 and 2.717 and 2.001 and 1.778 and 1.074
- ISG15, Type I IFN signalling array raw data [2, 3]: 7.828 and 5.157 and 3.914 and 1.97 and 4.252 and 5.488 and 3.54 and 2.475 and 2.54
- ISG20, Type I IFN signalling array raw data [2, 3]: 2.454 and 3.36 and 3.266 and 3.42 and 2.95 and 3.395 and 3.115 and 4.07 and 2.362
- MX1, Type I IFN signalling array raw data [2, 3]: 4.39 and 3.317 and 4.478 and 2.343 and 4.002 and 5.299 and 4.681 and 3.297 and 2.96
- MX2, Type I IFN signalling array raw data [2, 3]: 4.119 and 3.616 and 4.1617 and 3.303 and 3.807 and 5.104 and 3.9466 and 3.181 and 2.652
- MYD88, Type I IFN signalling array raw data [2, 3]: 2.47 and 3.66 and 3.439 and 3.359 and 3.397 and 3.681 and 4.188 and 3.514 and 3.446
- NMI, Type I IFN signalling array raw data [2, 3]: 1.562 and 2.473 and 2.043 and 2.157 and 2.037 and 2.367 and 1.861 and 2.107 and 1.945
- OAS1, Type I IFN signalling array raw data [2, 3]: 3.9946 and 5.08 and 3.975 and 3.103 and 3.832 and 4.439 and 4.753 and 3.122 and 2.562
- OAS2, Type I IFN signalling array raw data [2, 3]: 4.012 and 3.3146 and 4.469 and 3.575 and 4.215 and 3.938 and 4.568 and 3.269 and 1.99
- PML, Type I IFN signalling array raw data [2, 3]: 3.464 and 4.0817 and 4.578 and 3.206 and 4.344 and 4.48 and 3.583 and 3.774 and 3.137
- SOCS1, Type I IFN signalling array raw data [2, 3]: 3.527 and 3.231 and 4.351 and 3.055 and 4.321 and 4.161 and 3.784 and 3.314 and 2.261
- STAT1, Type I IFN signalling array raw data [2, 3]: 0.658 and 1.171 and -0.3774 and -0.03547 and 0.5032 and 0.1577 and 0.4735 and 0.157 and -0.9535
- STAT2, Type I IFN signalling array raw data [2, 3]: 3.702 and 3.438 and 3.148 and 3.834 and 3.166 and 3.676 and 3.7416 and 3.178 and 2.42
- STAT3, Type I IFN signalling array raw data [2, 3]: 1.85 and 1.467 and 4.524 and 1.728 and 2.05 and 2.151 and 1.4 and 1.718 and 1.637
- TAP1, Type I IFN signalling array raw data [2, 3]: 1.739 and 1.988 and 2.594 and 1.8192 and 2.316 and 2.659 and 1.447 and 2.0534 and 1.014
- TNFSF10, Type I IFN signalling array raw data [2, 3]: 2.971 and 3.81 and 3.83 and 3.393 and 3.712 and 3.506 and 3.8599 and 3.839 and 2.706
